Data reported in patent US9579314B2 (priority 2015, dated 2017).

Columns and labels:
Human β2 adrenoceptor = Human β2 adrenoceptor (Homo sapiens, UniProt P07550); conditions: read-out: B2 binding affinity
Human M3 receptor = Human M3 receptor (Homo sapiens, UniProt P20309); conditions: read-out: M3 binding affinity
Sequence of Human M3 receptor (P20309 whole entry): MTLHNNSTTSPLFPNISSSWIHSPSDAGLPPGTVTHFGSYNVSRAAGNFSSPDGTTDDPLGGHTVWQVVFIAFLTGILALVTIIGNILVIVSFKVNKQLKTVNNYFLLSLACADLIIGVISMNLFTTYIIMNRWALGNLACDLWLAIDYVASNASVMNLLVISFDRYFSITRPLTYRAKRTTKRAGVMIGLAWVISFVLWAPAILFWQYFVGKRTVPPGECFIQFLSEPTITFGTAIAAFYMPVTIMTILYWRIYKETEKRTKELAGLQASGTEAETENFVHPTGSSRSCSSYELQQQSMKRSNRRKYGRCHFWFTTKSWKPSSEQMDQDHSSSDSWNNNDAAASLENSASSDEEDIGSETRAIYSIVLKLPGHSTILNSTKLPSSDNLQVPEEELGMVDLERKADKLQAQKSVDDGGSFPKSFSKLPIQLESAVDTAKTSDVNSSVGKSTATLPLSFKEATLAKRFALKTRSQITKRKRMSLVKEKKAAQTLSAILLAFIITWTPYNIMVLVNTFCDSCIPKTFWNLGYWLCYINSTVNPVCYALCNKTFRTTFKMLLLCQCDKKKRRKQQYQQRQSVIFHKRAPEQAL

Sequence of Human β2 adrenoceptor (P07550 whole entry): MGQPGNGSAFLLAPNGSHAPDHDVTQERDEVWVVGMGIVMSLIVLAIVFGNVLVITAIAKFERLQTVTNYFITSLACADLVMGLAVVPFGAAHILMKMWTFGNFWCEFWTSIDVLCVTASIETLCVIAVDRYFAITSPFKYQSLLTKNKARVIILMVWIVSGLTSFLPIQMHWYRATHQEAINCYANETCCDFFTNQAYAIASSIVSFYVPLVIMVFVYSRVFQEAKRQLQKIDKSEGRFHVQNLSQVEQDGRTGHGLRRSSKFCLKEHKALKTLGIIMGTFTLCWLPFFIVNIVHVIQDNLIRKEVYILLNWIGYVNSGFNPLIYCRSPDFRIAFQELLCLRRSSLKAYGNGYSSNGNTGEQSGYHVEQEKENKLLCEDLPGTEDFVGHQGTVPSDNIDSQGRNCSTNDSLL

Compound: O=C(COc1cccc([C@](O)(C(=O)OCC2CCN(Cc3ccccc3)CC2)c2ccccc2)c1)N[C@H]1CCN(C(=O)c2ccc(CCNC[C@H](O)c3ccc(O)c4[nH]c(=O)ccc34)cc2)C1 [Compound 107, (1-benzylpiperidin-4-yl)methyl (S)-2-hydroxy-2-(3-(2-(((S)-1-(4-(2-(((R)-2-hydroxy-2-(8-hydroxy-2-oxo-1,2-dihydroquinolin-5-yl)ethyl)amino)ethyl)benzoyl)pyrrolidin-3-yl)amino)-2-oxoethoxy)phenyl)-2-phenylacetate]
- IC50 (Human β2 adrenoceptor): < 0.3 nM
- IC50 (Human M3 receptor): 0.3 to 3 nM

Compound: O=C(N[C@H]1CCCN(C(=O)COc2cccc([C@](O)(C(=O)OCC3CCN(Cc4ccccc4)CC3)c3ccccc3)c2)C1)c1ccc(CCNC[C@H](O)c2ccc(O)c3[nH]c(=O)ccc23)cc1 [Compound 108, (1-benzylpiperidin-4-yl)methyl (S)-2-hydroxy-2-(3-(2-((S)-3-(4-(2-(((R)-2-hydroxy-2-(8-hydroxy-2-oxo-1,2-dihydroquinolin-5-yl)ethyl)amino)ethyl)benzamido)piperidin-1-yl)-2-oxoethoxy)phenyl)-2-phenylacetate]
- IC50 (Human β2 adrenoceptor): 0.3 to 3 nM
- IC50 (Human M3 receptor): 0.3 to 3 nM

Compound: O=C(N[C@H]1CCN(C(=O)COc2cccc([C@](O)(C(=O)OCC3CCN(Cc4ccccc4)CC3)c3ccccc3)c2)C1)c1ccc(CCNC[C@H](O)c2ccc(O)c3[nH]c(=O)ccc23)cc1 [Compound 109, (1-benzylpiperidin-4-yl)methyl (S)-2-hydroxy-2-(3-(2-((S)-3-(4-(2-(((R)-2-hydroxy-2-(8-hydroxy-2-oxo-1,2-dihydroquinolin-5-yl)ethyl)amino)ethyl)benzamido)pyrrolidin-1-yl)-2-oxoethoxy)phenyl)-2-phenylacetate]
- IC50 (Human β2 adrenoceptor): 0.3 to 3 nM
- IC50 (Human M3 receptor): 0.3 to 3 nM

Compound: O=C(N[C@@H]1CCN(C(=O)COc2cccc([C@](O)(C(=O)OCC3CCN(Cc4ccccc4)CC3)c3ccccc3)c2)C1)c1ccc(CCNC[C@H](O)c2ccc(O)c3[nH]c(=O)ccc23)cc1 [Compound 110, (1-benzylpiperidin-4-yl)methyl (S)-2-hydroxy-2-(3-(2-((R)-3-(4-(2-(((R)-2-hydroxy-2-(8-hydroxy-2-oxo-1,2-dihydroquinolin-5-yl)ethyl)amino)ethyl)benzamido)pyrrolidin-1-yl)-2-oxoethoxy)phenyl)-2-phenylacetate]
- IC50 (Human β2 adrenoceptor): 0.3 to 3 nM
- IC50 (Human M3 receptor): 0.3 to 3 nM

Compound: O=C(COc1cccc([C@](O)(C(=O)OCC2CCN(Cc3ccccc3)CC2)c2ccccc2)c1)N1C[C@H]2CCN(C(=O)c3ccc(CCNC[C@H](O)c4ccc(O)c5[nH]c(=O)ccc45)cc3)[C@H]2C1 [Compound 111, (1-benzylpiperidin-4-yl)methyl (S)-2-hydroxy-2-(3-(2-((3aR,6aR)-1-(4-(2-(((R)-2-hydroxy-2-(8-hydroxy-2-oxo-1,2-dihydroquinolin-5-yl)ethyl)amino)ethyl)benzoyl)hexahydropyrrolo[3,4-b]pyrrol-5(1H)-yl)-2-oxoethoxy)phenyl)-2-phenylacetate]
- IC50 (Human β2 adrenoceptor): 0.3 to 3 nM
- IC50 (Human M3 receptor): 0.3 to 3 nM

Compound: O=C(COc1cccc([C@](O)(C(=O)OCC2CCN(Cc3ccccc3)CC2)c2ccccc2)c1)N1C[C@@H]2CCN(C(=O)c3ccc(CCNC[C@H](O)c4ccc(O)c5[nH]c(=O)ccc45)cc3)[C@@H]2C1 [Compound 112, (1-benzylpiperidin-4-yl)methyl (S)-2-hydroxy-2-(3-(2-((3aS,6aS)-1-(4-(2-(((R)-2-hydroxy-2-(8-hydroxy-2-oxo-1,2-dihydroquinolin-5-yl)ethyl)amino)ethyl)benzoyl)hexahydropyrrolo[3,4-b]pyrrol-5(1H)-yl)-2-oxoethoxy)phenyl)-2-phenylacetate]
- IC50 (Human β2 adrenoceptor): < 0.3 nM
- IC50 (Human M3 receptor): 0.3 to 3 nM
